Data published in PubChem BioAssay (NCI).
Values joined by “and” are separate entries in the source; they are usually repeats but may differ in a detail not shown here. Equal values may be shown once.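 A five-concentration, 48-hour dose response in 96-well plates underlies each endpoint, interpolated linearly between surrounding concentrations. GI50: concentration for 50% inhibition of growth. TGI: concentration producing complete growth inhibition.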

Legend:
Experiment in all cases: NCI anticancer screen, dose series, 48 h
CCRF-CEM leukemia = system: CCRF-CEM leukemia
NCI-H23 lung = system: NCI-H23 lung
OVCAR-5 ovarian = system: OVCAR-5 ovarian
OVCAR-8 ovarian = system: OVCAR-8 ovarian
RXF 393 renal = system: RXF 393 renal
SF-268 CNS = system: SF-268 CNS
SF-295 CNS = system: SF-295 CNS
SN12C renal = system: SN12C renal
SR leukemia = system: SR leukemia
U251 CNS = system: U251 CNS

Row | SMILES | GI50 (CCRF-CEM leukemia) | TGI (CCRF-CEM leukemia) | GI50 (NCI-H23 lung) | TGI (NCI-H23 lung) | GI50 (OVCAR-5 ovarian) | TGI (OVCAR-5 ovarian) | GI50 (OVCAR-8 ovarian) | TGI (OVCAR-8 ovarian) | GI50 (RXF 393 renal) | TGI (RXF 393 renal) | GI50 (SF-268 CNS) | TGI (SF-268 CNS) | GI50 (SF-295 CNS) | TGI (SF-295 CNS) | GI50 (SN12C renal) | TGI (SN12C renal) | GI50 (SR leukemia) | TGI (SR leukemia) | GI50 (U251 CNS) | TGI (U251 CNS)
1 | COc1ccc(/C(=C/c2ccc3ccccc3c2)c2nn[nH]n2)cc1OC | 3.33 µM | > 100 µM | 5.29 µM | > 100 µM | 6.08 µM | > 100 µM | 7.1 µM | > 100 µM | 2.48 µM | 9.07 µM | 6.55 µM | > 100 µM | 1.51 µM | 51.1 µM | 9.97 µM | > 100 µM | 2.23 µM | > 100 µM | 4.46 µM | > 100 µM
2 | Cc1ccc(NC(=O)CCc2nnc3s/c(=C\c4cccc([N+](=O)[O-])c4)c(=O)n23)cc1 |  | > 100 µM |  | > 100 µM |  | > 100 µM |  | > 100 µM |  | > 100 µM |  | > 100 µM |  | > 100 µM |  | > 100 µM |  | > 100 µM |  | > 100 µM
3 | Cc1cc(Cl)ccc1NC(=O)CC1SC(=NC(=O)c2ccccc2Cl)NC1=O (stereo unspecified) |  | 8.66 µM |  | > 100 µM |  | 84 µM |  | > 100 µM |  | 35.1 µM |  | 36.7 µM |  | > 100 µM |  | 33.5 µM |  | 34.5 µM |  | 30.1 µM
4 | CS(=O)(=O)O[C@H]1C(=O)N(c2cc3c4ccccc4ccc3c3ccccc23)[C@@H]1c1ccccn1 | 0.515 µM | > 100 µM | 0.981 µM | > 100 µM | 0.711 µM | > 100 µM | 0.712 µM | > 100 µM | 0.242 µM | 0.878 µM | 0.707 µM | > 100 µM | 0.291 µM | 11.8 µM | 0.737 µM | > 100 µM | 0.384 µM | > 100 µM | 0.685 µM | > 100 µM
5 | O=C(/C=C\c1cc(Br)ccc1O)/C=C/c1cc(Br)ccc1O | 0.282 µM | 10.5 µM | 0.87 µM | 2.68 µM | 1.67 µM | 3.33 µM | 0.345 µM | 11.6 µM | 0.348 µM | 1.41 µM | 1.33 µM | 3.1 µM | 0.538 µM | 1.93 µM | 1.47 µM | 4.63 µM | 0.321 µM | 29.7 µM | 0.383 µM | 1.55 µM
6 | Cc1ccc(S(=O)(=O)OCC(=O)Nc2ccc(C(=O)O)c(O)c2)cc1 | 13.7 µM | 69 µM | 29.4 µM | 105 µM | 46.5 µM | 105 µM | 30.3 µM | 106 µM | 16.5 µM | 85 µM | 19.5 µM | 53.5 µM | 167 µM | 322 µM | 27.9 µM | 105 µM | 0.195 µM | 7.08 µM | 16.3 µM | 34.5 µM
7 | CC12CCCC(C#N)(C1)OC2=O (stereo unspecified) |  | > 100 µM |  | > 100 µM |  | > 100 µM |  | > 100 µM |  | > 100 µM |  | > 100 µM |  | > 100 µM |  | > 100 µM |  | > 100 µM |  | > 100 µM
8 | O=C(CCC(=O)Nc1ccc(Cl)cc1)CC(=O)c1ccc2ccccc2c1 |  | > 100 µM |  | > 100 µM |  | > 100 µM |  | > 100 µM |  | > 100 µM |  | > 100 µM |  | > 100 µM |  | > 100 µM |  | > 100 µM |  | > 100 µM
9 | CCCCCCCCCCCCNC(=O)N[C@H](C(=O)N[C@H]1/C=C/CCNC(=O)/C=C/[C@H](C)NC1=O)C(C)C | 0.0495 µM | 5.13 µM | 0.0513 µM | 0.612 µM | 0.0271 µM | 0.114 µM | 0.463 µM | 4.19 µM | 0.0166 µM | 0.0405 µM | 0.0543 µM | 1.04 µM | 0.239 µM | 1.45 µM | 0.184 µM | 0.591 µM | 0.0294 µM | 0.958 µM | 0.0412 µM | 0.209 µM
10 | CON=C1C[C@]2(C[C@@H]3C[C@@H](C/C=C(\C)C[C@@H](C)/C=C/C=C4\CO[C@@H]5[C@H](O)C(C)=C[C@@H](C(=O)O3)[C@]45O)O2)O[C@H](/C(C)=C/C(C)C)[C@H]1C | 7.65 µM | 34.3 µM | 12.6 µM | 28.4 µM | 18.1 µM | 37.4 µM | 16.3 µM | 39.1 µM | 16.4 µM | 30.6 µM | 13 µM | 27.5 µM | 9.16 µM | 22 µM | 14 µM | 28.3 µM | 3.91 µM | 40.9 µM | 11.3 µM | 24.3 µM
11 | CC(=O)n1nnc2ccc([N+](=O)[O-])cc21 |  | > 100 µM |  | > 100 µM |  | > 100 µM |  | > 100 µM |  | > 100 µM |  | > 100 µM |  | > 100 µM |  | > 100 µM |  | > 100 µM |  | > 100 µM
12 | O=C(O)c1ccc(NCc2nc3ccccc3[nH]2)cc1 | > 100 µM | > 100 µM | > 100 µM | > 100 µM | > 100 µM | > 100 µM | > 100 µM | > 100 µM | > 100 µM | > 100 µM | > 100 µM | > 100 µM | > 100 µM | > 100 µM | > 100 µM | > 100 µM | > 100 µM | > 100 µM | > 100 µM | > 100 µM
13 | C=C[C@H]1CN2CCc3c([nH]c4c([C@@H]5CCCN5C)c(O)ccc34)[C@@H]2C[C@@H]1C[C@H]1c2[nH]c3ccccc3c2CCN1C | 0.484 µM and 0.475 µM |  |  | 3.63 µM and 3.71 µM |  | 3.29 µM and 3.31 µM and 3.39 µM |  | 3.3 µM and 2.96 µM |  | 0.913 µM and 1.52 µM |  | 3.03 µM and 3.42 µM |  | 3.05 µM |  | 3.13 µM and 3.39 µM | 0.161 µM and 0.197 µM | 520 nM [middle of 4 runs] |  | 2.94 µM and 2.95 µM
14 | NS(=O)(=O)c1ccc(N=Nc2c(O)[nH]c3ccc(C(=O)NCCc4cnc[nH]4)cc23)cc1 | > 25 µM | > 25 µM | > 25 µM | > 25 µM | > 25 µM | > 25 µM | > 25 µM | > 25 µM | > 25 µM | > 25 µM | > 25 µM | > 25 µM | > 25 µM | > 25 µM | > 25 µM | > 25 µM | > 25 µM | > 25 µM | > 25 µM | > 25 µM
